Results reported in patent US9556122B2, “Luminescent 1-hydroxy-2-pyridinone chelates of lanthanides” (THE REGENTS OF THE UNIVERSITY OF CALIFORNIA, priority 2006, dated 2017).

Experiment: Preliminary extraction study
Conditions: over a wide range of acidity and ionic strength

Structure (SMILES): CCCCCCCCNC(=O)c1cccc(=O)n1O [octyl-1,2-HOPO, 1-Hydroxy-6-N-octylcarboxamide-2(1H)-pyridinone]
- specificity as extractant for Pu(IV): high specificity
